From US11766446B2, “Treatment of aging-associated conditions by DNA degradation” (The General Hospital Corporation, priority 2018, dated 2023) come the findings set out here.

Type in all cases: cell-based, human
Experiment [1] concerns MRC5 cells. The experiment in a line: RT-qPCR expression of IFNI-inducible, inflammatory and cell-cycle genes in young and old cells. The note with it: old MRC5 cells. Here is the method: 0.25-1 μg of total RNA was reverse-transcribed with High Capacity cDNA Reverse Transcription kit (Applied Biosystems). Quantitative PCR was then performed using LightCyler® 480 SYBR Master I reagents (Roche) on LightCyler® 96 instrument. Transcript levels were normalized to B2M or GAPDH. Primer pairs used are listed below.
Background: In qPCR the cycle at which signal appears reflects the starting amount.

In experiment [2] the test system is MRC5 cells. As to the kind of experiment: SA-β-gal activity staining in young and old MRC5 cells. The note with it: aged MRC5 cells; Ara-C 10 μM, 24 h; FIG. 6F. An excerpt: (§1) Ara-C, bafilomycin A1 and rapamycin were from Sigma-Aldrich (St. Louis, Mo.); SA β-gal Staining Kit was from Cell Signaling (Danvers, Mass.); TUNEL Apo-Green detection reaction mixture was from Biomake (Houston, Tex.).

For experiment [3], the system named is MRC5 cells. As to the kind of experiment: TUNEL assay detecting DNA fragmentation (nicked DNA) in young and old MRC5 cells. The note with it: Ara-C 10 μM, 24 hr, FIG. 1B.
Source text: as §1

For experiment [4], the system named is MRC5 cells. As to the kind of experiment: Immunofluorescence anti-dsDNA staining of nuclear and cytosolic DNA in young and old MRC5 cells. To be noted: 24 hr. As for the experimental part:
Cells were cultured in Lab-Tek II 8-well chamber slides, fixed with 4% PFA (10 min), permeabilized with 0.5% Triton X-100 (5 min), then blocked and stained with antibodies against: dsDNA (Santa Cruz, 1:500), 7H2AX, NUP98, pTBK1 (both Cell Signaling, 1:200), LC3 (Novus Biologicals, 1:200) or biotin-LAMP1 (BioLegend, 1:200), followed by fluorescent secondary antibodies (45 min). Methanol fixation was used for anti-pIRF3 (Cell Signaling, 1:200) staining.
Nuclear and cytosolic DNA signals from 5 of 10× or 20× images (˜50-200 cells per image) were quantified using Fiji. Region of interest (ROI) was defined in each image and threshold set to measure fluorescence above background. Nuclear ROI was defined by DAPI staining and its intensity subtracted from total fluorescence to determine cytoplasmic signal. Quantitative fluorescence was presented as integrated density per cell with cell number determined by particle count of DAPI.

[5] abbreviates: bafilomycin 20 nM, 8 hr, FIG. 2F.

As for `Nc1ccn([C@@H]2O[C@H](CO)[C@@H](O)[C@@H]2O)c(=O)n1` [Ara-C, cytarabine], in the experiment on MRC5 cells [1] (Ara-C 10 μM, 24 hr, FIG. 2A), the “CXCL10 expression (RT-qPCR)” value is reported as “further increased”, the “IL-6 expression (RT-qPCR)” value is reported as “further increased” and the “MX1 expression (RT-qPCR)” value is on record as “further increased”. The “percentage of SA-β-gal+ cells” value with MRC5 cells [2] is on record as “further increased”. Also, the “nicked DNA (TUNEL staining) in old cells” value in the experiment with MRC5 cells [3] is “more intense”. In the experiment with MRC5 cells [4] (old MRC5 cells, Ara-C 10 μM, FIG. 1C), the “nuclear DNA in old cells (anti-dsDNA IF)” value was “more nuclear DNA”. Moreover, the “extranuclear DNA in young cells (anti-dsDNA IF)” value in the experiment with MRC5 cells [4] (young MRC5 cells, Ara-C 10 μM, FIG. 1C) is on record as “more extranuclear DNA”.

In the case of `CO/C1=C\C(C)=C\[C@@H](C)[C@@H](O)[C@@H](C)C/C(C)=C/C=C/[C@H](OC)[C@@H]([C@@H](C)[C@@H](O)[C@H](C)[C@@]2(O)C[C@@H](O)[C@H](C)[C@@H](C(C)C)O2)OC1=O` [bafilomycin A1], in the experiment on MRC5 cells [1] (setting [5]), the “CXCL10 expression (RT-qPCR)” value is “increased levels” and the “MX1 expression (RT-qPCR)” value was “increased levels”.

For `CCC(=C/[C@H](C)C/C=C/C(C)=C/[C@@H](C)C(=O)[C@@H](C)[C@H](O)[C@@H](C)C/C(C)=C/C(=O)O)/C=C/[C@@H]1OC(=O)C=C[C@@H]1C` [leptomycin B], the “dsDNA staining in nuclei (anti-dsDNA IF)” value in the experiment with MRC5 cells [4] (LMB-treated cells, 20 nM, FIG. 1D) is “some increase”. In the experiment on MRC5 cells [4] (old MRC5 cells, LMB 20 nM, FIG. 1D), the “cytosolic DNA in old cells (anti-dsDNA IF)” value is “dramatic reduction”.
